Assays:
Experiment in all cases: relative viability (nuclei count vs DMSO), 5 days (fraction); higher = more cells survive
Tanzisertib + Decitabine = compound: O[C@H]1CC[C@H](Nc2ncc3nc(Nc4c(F)cc(F)cc4F)n([C@H]4CCOC4)c3n2)CC1 [Tanzisertib] + Nc1ncn([C@H]2C[C@H](O)[C@@H](CO)O2)c(=O)n1 [Decitabine] (partner 2 µM)
Method in brief: (§1)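 After 5 days of treatment, lung cancer cells in 1536-well plates were fixed and stained in a single step (final 0.05% Triton X-100, 1% formaldehyde, 1 ug/ml Hoechst) and their nuclei counted on 4× images. Treatment had been applied by pin tool the day after seeding as one drug alone or as a fixed anchor-drug dose with five library-drug doses (not always all listed) in √10 steps. Relative viability is the nuclei count of treated wells divided by that of vehicle wells, and values are medians of duplicate plates.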

[1] = compound: C[C@@H](N)c1ccc(C(=O)Nc2ccnc3[nH]ccc23)cc1 + Cc1cc(Nc2cc(N3CCN(C)CC3)nc(Sc3ccc(NC(=O)C4CC4)cc3)n2)n[nH]1 [Tozasertib] (partner 0.1 µM)
Method in brief: as §1

Tanzisertib + Alpelisib = compound: O[C@H]1CC[C@H](Nc2ncc3nc(Nc4c(F)cc(F)cc4F)n([C@H]4CCOC4)c3n2)CC1 [Tanzisertib] + Cc1nc(NC(=O)N2CCC[C@H]2C(N)=O)sc1-c1ccnc(C(C)(C)C(F)(F)F)c1 [Alpelisib] (partner 2 µM)
Method in brief: as §1

[2] = compound: O[C@H]1CC[C@H](Nc2ncc3nc(Nc4c(F)cc(F)cc4F)n([C@H]4CCOC4)c3n2)CC1 [Tanzisertib] + CC(=O)c1c(C)c2cnc(Nc3ccc(N4CCNCC4)cn3)nc2n(C2CCCC2)c1=O [Palbociclib] (partner 0.5 µM)
Method in brief: as §1

Cell Line | relative viability (Tanzisertib + Decitabine; first compound 0.08 µM) | relative viability (Tanzisertib + Decitabine; first compound 0.253 µM) | relative viability (Tanzisertib + Decitabine; first compound 0.8 µM) | relative viability (Tanzisertib + Decitabine; first compound 2.53 µM) | relative viability (Tanzisertib + Decitabine; first compound 8 µM) | relative viability ([1]; first compound 0.04 µM) | relative viability ([1]; first compound 0.1265 µM) | relative viability ([1]; first compound 0.4 µM) | relative viability ([1]; first compound 1.265 µM) | relative viability ([1]; first compound 4 µM) | relative viability (Tanzisertib + Alpelisib; first compound 0.08 µM) | relative viability (Tanzisertib + Alpelisib; first compound 0.253 µM) | relative viability (Tanzisertib + Alpelisib; first compound 0.8 µM) | relative viability (Tanzisertib + Alpelisib; first compound 2.53 µM) | relative viability (Tanzisertib + Alpelisib; first compound 8 µM) | relative viability ([2]; first compound 0.08 µM) | relative viability ([2]; first compound 0.253 µM) | relative viability ([2]; first compound 0.8 µM) | relative viability ([2]; first compound 2.53 µM) | relative viability ([2]; first compound 8 µM)
SK-LU-1 | 0.707 | 0.796 | 0.623 | 0.616 | 0.647 | 0.34 | 0.333 | 0.372 | 0.289 | 0.311 | 1.15 | 0.976 | 1.12 | 1.23 | 0.912 | 0.455 | 0.388 | 0.37 | 0.384 | 0.389
LOU-NH91 | 0.869 | 0.82 | 0.837 | 0.805 | 0.635 | 0.556 | 0.609 | 0.607 | 0.504 | 0.417 | 0.755 | 0.706 | 0.716 | 0.694 | 0.549 | 0.584 | 0.558 | 0.532 | 0.556 | 0.414
LXF-289 | 0.419 | 0.379 | 0.387 | 0.416 | 0.39 | 0.147 | 0.185 | 0.194 | 0.168 | 0.175 | 1.06 | 1.02 | 1.05 | 1.04 | 1.11 | 0.596 | 0.592 | 0.647 | 0.574 | 0.65
NCI-H1299 | – | – | – | – | – | – | – | – | – | – | 1.07 | 1.05 | 1.08 | 1.01 | 1.14 | – | – | – | – | –
HARA | 0.602 | 0.579 | 0.504 | 0.566 | 0.539 | – | 0.101 | 0.0806 | – | 0.087 | 0.752 | 0.762 | 0.852 | 0.795 | 0.842 | 0.247 | 0.313 | 0.257 | 0.193 | 0.267
LU99A | 1.03 | 0.88 | 0.984 | 0.874 | 0.911 | – | 0.278 | 0.234 | 0.227 | 0.227 | 0.549 | 0.519 | 0.521 | 0.503 | 0.456 | 0.405 | 0.377 | 0.378 | 0.399 | 0.389
201T | 0.862 | 0.902 | 0.853 | 0.857 | 0.85 | 0.945 | 0.897 | 0.977 | 1.08 | 1.04 | 1.03 | 1.04 | 1.01 | 0.993 | 1.01 | 0.369 | 0.375 | 0.35 | 0.342 | 0.334
HCC-827 | 0.338 | 0.372 | 0.257 | 0.367 | 0.207 | 0.449 | 0.445 | 0.447 | 0.411 | 0.412 | 1.08 | 0.97 | 0.946 | 0.895 | 0.391 | 0.533 | 0.468 | 0.475 | 0.429 | 0.24
NCI-H1666 | 0.766 | 0.714 | 0.658 | 0.704 | 0.679 | 0.605 | 0.618 | 0.63 | 0.698 | 0.593 | 0.935 | 1.01 | 1.06 | 1.1 | 1.01 | 0.675 | 0.729 | 0.65 | 0.688 | 0.639
NCI-H1915 | 0.288 | 0.275 | 0.264 | 0.257 | 0.279 | 0.455 | 0.472 | 0.45 | – | 0.331 | 1.15 | 1.05 | 1.06 | 1.04 | 1.04 | 0.58 | 0.514 | 0.55 | 0.506 | 0.476
NCI-H2009 | 0.366 | 0.437 | 0.387 | 0.355 | 0.377 | 0.736 | 0.704 | 0.643 | 0.623 | 0.544 | 1.24 | 1.2 | 1.14 | 1.19 | 1.17 | 0.201 | 0.209 | 0.263 | 0.278 | 0.187
ChaGo-K-1 | 0.519 | 0.531 | 0.493 | 0.512 | 0.537 | 0.223 | 0.219 | 0.221 | 0.246 | 0.21 | – | – | – | – | – | 0.977 | 0.927 | 0.91 | 0.889 | 0.903
COR-L 105 | 0.697 | 0.659 | 0.643 | 0.751 | 0.538 | 0.359 | 0.355 | 0.349 | 0.296 | 0.177 | 1.19 | 0.832 | 1.07 | 1.09 | 0.924 | 0.411 | 0.4 | 0.407 | 0.417 | 0.39
NCI-H2170 | 0.483 | 0.479 | 0.465 | 0.485 | 0.435 | 0.719 | 0.663 | 0.784 | 0.699 | 0.636 | 0.98 | 0.787 | 0.796 | 0.779 | 0.809 | 0.415 | 0.39 | 0.36 | 0.428 | 0.406
A549 | 0.246 | 0.25 | 0.277 | 0.267 | 0.127 | – | – | – | – | – | 0.759 | 0.648 | 0.709 | 0.706 | 0.712 | – | – | – | – | –

From the supplement of paper PMC10307832
